According to ChEMBL document CHEMBL1137908, “Synthesis and antibacterial activity of novel 6-fluoro-1-[(1R,2S)-2-fluorocyclopropan-1-yl]-4-oxoquinoline-3-carboxylic acids bearing cyclopropane-fused 2-amino-8-azabicyclo[4.3.0]nonan-8-yl substituents at the C-7 position” (Bioorg Med Chem Lett, 2004):
pIC50: −log10 of the molar value. In brackets after ≈: the same amount, converted by molar mass.

Tests used:
Streptococcus pneumoniae = test: Antibacterial activity against Penicillin-resistant Streptococcus pneumoniae (PRSP) J-24 was determined; assay type: functional
Klebsiella pneumoniae = test: Antibacterial activity against Klebsiella pneumoniae type II was determined; assay type: functional
DNA topoisomerase II = DNA topoisomerase II (Homo sapiens, UniProt P11388+Q02880); test: Inhibitory concentration against human DNA topoisomerase II; assay type: protein assay
[1] = system: Staphylococcus epidermidis; test: Antibacterial activity against Staphylococcus epidermidis 56500 was determined; assay type: functional
Enterococcus faecalis = test: Antibacterial activity against Enterococcus faecalis ATCC 19433 was determined; assay type: functional
Streptococcus pyogenes = test: Antibacterial activity against Streptococcus pyogenes G-36 was determined; assay type: functional
Staphylococcus aureus [2] = test: Antibacterial activity against methicillin-resistant Staphylococcus aureus (MRSA) 870307 was determined; assay type: functional
Streptococcus mitis = test: Antibacterial activity against Streptococcus mitis IID685 was determined; assay type: functional
Escherichia coli = test: Antibacterial activity against Escherichia coli NIHJ was determined; assay type: functional
Staphylococcus aureus [3] = test: Antibacterial activity against Staphylococcus aureus FDA 209P was determined; assay type: functional
[4] = molecular target: T1, DNA topoisomerase 4 subunit A (Staphylococcus aureus subsp. aureus Mu50, UniProt Q931S2); test: Inhibitory concentration against Staphylococcus aureus DNA topoisomerase IV
T1 sequence (Q931S2 whole entry): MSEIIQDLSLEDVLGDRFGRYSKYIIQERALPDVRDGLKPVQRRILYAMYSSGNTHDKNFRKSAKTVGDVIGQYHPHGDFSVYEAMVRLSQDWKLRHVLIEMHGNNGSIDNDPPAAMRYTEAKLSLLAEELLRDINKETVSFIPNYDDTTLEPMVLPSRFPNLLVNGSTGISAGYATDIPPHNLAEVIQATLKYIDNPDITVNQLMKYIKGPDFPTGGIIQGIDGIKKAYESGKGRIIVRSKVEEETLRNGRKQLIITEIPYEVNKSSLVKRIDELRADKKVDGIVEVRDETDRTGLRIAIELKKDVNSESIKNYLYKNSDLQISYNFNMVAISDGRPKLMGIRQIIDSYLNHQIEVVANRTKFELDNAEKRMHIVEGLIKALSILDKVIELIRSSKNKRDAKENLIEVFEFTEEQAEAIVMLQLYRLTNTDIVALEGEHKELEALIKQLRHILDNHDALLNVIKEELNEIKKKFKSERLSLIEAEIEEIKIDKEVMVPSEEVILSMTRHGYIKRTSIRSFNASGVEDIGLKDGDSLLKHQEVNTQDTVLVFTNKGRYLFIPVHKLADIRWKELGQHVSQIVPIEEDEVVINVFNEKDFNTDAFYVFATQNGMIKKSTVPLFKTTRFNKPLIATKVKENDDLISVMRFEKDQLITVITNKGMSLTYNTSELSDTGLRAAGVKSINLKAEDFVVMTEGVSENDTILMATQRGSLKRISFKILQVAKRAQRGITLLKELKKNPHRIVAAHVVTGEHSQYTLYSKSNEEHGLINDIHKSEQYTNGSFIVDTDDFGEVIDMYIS

[5] = Ratio of binding to human DNA topoisomerase II and Staphylococcus aureus DNA topoisomerase IV
[6] = Escherichia coli, read-out: MIC
[7] = Staphylococcus aureus, read-out: MIC
[8] = Streptococcus pneumoniae, read-out: MIC
[9] = Klebsiella pneumoniae, read-out: MIC
[10] = Staphylococcus epidermidis, read-out: MIC
[11] = Enterococcus faecalis, ATCC 19433, read-out: MIC
[12] = Streptococcus pyogenes, read-out: MIC
[13] = Streptococcus mitis, read-out: MIC

SMILES | MIC (Streptococcus pneumoniae) | MIC (Klebsiella pneumoniae) [µg/mL] | MIC [1] | MIC (Enterococcus faecalis) [µg/mL] | MIC (Streptococcus pyogenes) | MIC (Staphylococcus aureus [2]) [µg/mL] | MIC (Streptococcus mitis) | MIC (Escherichia coli; [6]) [µg/mL] | MIC (Staphylococcus aureus [3]; [7]) [µg/mL] | MIC (Escherichia coli) | MIC (Streptococcus pneumoniae; [8]) [µg/mL] | MIC (Klebsiella pneumoniae; [9]) [µg/mL] | MIC (Enterococcus faecalis; [11]) [µg/mL] | MIC (Streptococcus pyogenes; [12]) [µg/mL] | MIC (Streptococcus mitis; [13]) [µg/mL] | further results
Nc1c(F)c(N2C[C@H]3CC[C@H]4C[C@@]4(N)[C@H]3C2)c(F)c2c1c(=O)c(C(=O)O)cn2[C@@H]1C[C@@H]1F (stereo in doubt; 13 (+)) [listing 1 of 2 here] | <=0.003 ug ml-1 | 0.01 (≈ 0.0223 µM) | <=0.003 ug ml-1 | 0.02 (≈ 0.0446 µM) | <=0.003 ug ml-1 | 0.006 (≈ 0.0134 µM) | <=0.003 ug ml-1 | ≤ 0.003 | ≤ 0.003 |  |  |  |  |  |  | IC50 (DNA topoisomerase II): 21.89 µg/mL (≈ 48.8 µM); pIC50 [4]: 6.17
Nc1c(F)c(N2C[C@H]3CC[C@H]4C[C@@]4(N)[C@H]3C2)c(F)c2c1c(=O)c(C(=O)O)cn2[C@@H]1C[C@@H]1F (stereo in doubt; 13 (+)) [listing 2 of 2 here] |  |  |  |  |  |  |  |  |  |  |  |  |  |  |  | Selectivity [5]: 71.3
Nc1c(F)c(N2C[C@H]3CC[C@H]4C[C@@]4(N)[C@H]3C2)c(F)c2c1c(=O)c(C(=O)O)cn2[C@@H]1C[C@@H]1F (stereo in doubt; 14 (-)) | 0.02 µg/mL (≈ 0.0446 µM) | 0.05 (≈ 0.111 µM) | 0.02 µg/mL (≈ 0.0446 µM) | 0.2 (≈ 0.446 µM) | 0.05 µg/mL (≈ 0.111 µM) | 0.2 (≈ 0.446 µM) | 0.02 µg/mL (≈ 0.0446 µM) |  |  | 0.006 µg/mL (≈ 0.0134 µM) |  |  |  |  |  | 
Nc1c(F)c(N2C[C@H]3C[C@@H]4C[C@@H]4[C@@H](N)[C@H]3C2)c(F)c2c1c(=O)c(C(=O)O)cn2[C@@H]1C[C@@H]1F (stereo in doubt; 24 (+)) [listing 1 of 2 here] | <=0.003 ug ml-1 | 0.01 (≈ 0.0223 µM) | <=0.003 ug ml-1 | 0.02 (≈ 0.0446 µM) | <=0.003 ug ml-1 | 0.01 (≈ 0.0223 µM) | <=0.003 ug ml-1 |  | ≤ 0.003 | <=0.003 ug ml-1 |  |  |  |  |  | IC50 (DNA topoisomerase II): 22.47 µg/mL (≈ 50.1 µM); pIC50 [4]: 6.51
Nc1c(F)c(N2C[C@H]3C[C@@H]4C[C@@H]4[C@@H](N)[C@H]3C2)c(F)c2c1c(=O)c(C(=O)O)cn2[C@@H]1C[C@@H]1F (stereo in doubt; 24 (+)) [listing 2 of 2 here] |  |  |  |  |  |  |  |  |  |  |  |  |  |  |  | Selectivity [5]: 151
Nc1c(F)c(N2C[C@H]3C[C@@H]4C[C@@H]4[C@@H](N)[C@H]3C2)c(F)c2c1c(=O)c(C(=O)O)cn2[C@@H]1C[C@@H]1F (stereo in doubt; 25 (-)) | 0.1 µg/mL (≈ 0.223 µM) | 0.1 (≈ 0.223 µM) | 0.05 µg/mL (≈ 0.111 µM) | 0.2 (≈ 0.446 µM) | 0.39 µg/mL (≈ 0.87 µM) | 1.56 (≈ 3.48 µM) | 0.1 µg/mL (≈ 0.223 µM) |  |  | 0.01 µg/mL (≈ 0.0223 µM) |  |  |  |  |  | MIC (Staphylococcus aureus [3]): 0.006 µg/mL (≈ 0.0134 µM)
Nc1c(F)c(N2C[C@H]3C[C@@H]4C[C@@H]4[C@H](N)[C@H]3C2)c(F)c2c1c(=O)c(C(=O)O)cn2[C@@H]1C[C@@H]1F (stereo in doubt; 26 (+)) [listing 1 of 2 here] |  |  |  |  |  | 0.02 (≈ 0.0446 µM) |  | ≤ 0.003 | ≤ 0.003 |  | ≤ 0.003 | 0.01 (≈ 0.0223 µM) | 0.02 (≈ 0.0446 µM) | 0.006 (≈ 0.0134 µM) | ≤ 0.003 | IC50 (DNA topoisomerase II): 6.65 µg/mL (≈ 14.8 µM); MIC [1, 10]: ≤ 0.003 µg/mL; pIC50 [4]: 6.07
Nc1c(F)c(N2C[C@H]3C[C@@H]4C[C@@H]4[C@H](N)[C@H]3C2)c(F)c2c1c(=O)c(C(=O)O)cn2[C@@H]1C[C@@H]1F (stereo in doubt; 26 (+)) [listing 2 of 2 here] |  |  |  |  |  |  |  |  |  |  |  |  |  |  |  | Selectivity [5]: 17.3
Nc1c(F)c(N2C[C@H]3C[C@@H]4C[C@@H]4[C@H](N)[C@H]3C2)c(F)c2c1c(=O)c(C(=O)O)cn2[C@@H]1C[C@@H]1F (stereo in doubt; 27 (-)) | 0.006 µg/mL (≈ 0.0134 µM) |  | 0.006 µg/mL (≈ 0.0134 µM) |  | 0.01 µg/mL (≈ 0.0223 µM) | 0.2 (≈ 0.446 µM) | 0.006 µg/mL (≈ 0.0134 µM) |  |  |  |  |  |  |  |  | 
Nc1c(F)c(N2C[C@H]3CCC[C@@H](N)[C@H]3C2)c(F)c2c1c(=O)c(C(=O)O)cn2[C@@H]1C[C@@H]1F (stereo in doubt; 28 (+)) [listing 1 of 2 here] | <=0.003 ug ml-1 | 0.01 (≈ 0.0229 µM) | <=0.003 ug ml-1 | 0.02 (≈ 0.0458 µM) | <=0.003 ug ml-1 | 0.006 (≈ 0.0137 µM) | <=0.003 ug ml-1 |  |  | <=0.003 ug ml-1 |  |  |  |  |  | IC50 (DNA topoisomerase II): 7 µg/mL (≈ 16 µM); MIC (Staphylococcus aureus [3]): <=0.003 ug ml-1; pIC50 [4]: 6.38
Nc1c(F)c(N2C[C@H]3CCC[C@@H](N)[C@H]3C2)c(F)c2c1c(=O)c(C(=O)O)cn2[C@@H]1C[C@@H]1F (stereo in doubt; 28 (+)) [listing 2 of 2 here] |  |  |  |  |  |  |  |  |  |  |  |  |  |  |  | Selectivity [5]: 38.3
Nc1c(F)c(N2C[C@H]3CCC[C@@H](N)[C@H]3C2)c(F)c2c1c(=O)c(C(=O)O)cn2[C@@H]1C[C@@H]1F (stereo in doubt; 29 (-)) | 0.1 µg/mL (≈ 0.229 µM) | 0.39 (≈ 0.894 µM) | 0.2 µg/mL (≈ 0.458 µM) | 0.78 (≈ 1.79 µM) | 0.1 µg/mL (≈ 0.229 µM) | 0.78 (≈ 1.79 µM) | 0.1 µg/mL (≈ 0.229 µM) |  |  | 0.1 µg/mL (≈ 0.229 µM) |  |  |  |  |  | MIC (Staphylococcus aureus [3]): 0.02 µg/mL (≈ 0.0458 µM)
C[C@H]1COc2c(N3CCN(C)CC3)c(F)cc3c(=O)c(C(=O)O)cn1c23.C[C@H]1COc2c(N3CCN(C)CC3)c(F)cc3c(=O)c(C(=O)O)cn1c23.O [LEVOFLOXACIN] |  |  |  |  |  |  |  |  | 0.2 |  | 0.78 | 0.05 | 0.78 | 0.78 | 0.39 | MIC [1, 10]: 0.39 µg/mL; MIC (Staphylococcus aureus [2]; [7]): > 6.25 µg/mL
CC(=O)NC[C@H]1CN(c2ccc(N3CCOCC3)c(F)c2)C(=O)O1 [LINEZOLID] |  |  |  |  |  |  |  | 6.25 (≈ 18.5 µM) | 0.78 (≈ 2.31 µM) |  | 0.78 (≈ 2.31 µM) | > 6.25 | 3.13 (≈ 9.28 µM) | 3.13 (≈ 9.28 µM) | 1.56 (≈ 4.62 µM) | MIC [1, 10]: 1.56 µg/mL (≈ 4.62 µM); MIC (Staphylococcus aureus [2]; [7]): 1.56 µg/mL (≈ 4.62 µM)
COc1c(N2C[C@@H]3CCCN[C@@H]3C2)c(F)cc2c(=O)c(C(=O)O)cn(C3CC3)c12 [MOXIFLOXACIN] |  |  |  |  |  |  |  | 0.006 (≈ 0.0149 µM) | 0.02 (≈ 0.0498 µM) |  | 0.02 (≈ 0.0498 µM) | 0.05 (≈ 0.125 µM) | 0.2 (≈ 0.498 µM) | 0.2 (≈ 0.498 µM) | 0.1 (≈ 0.249 µM) | MIC [1, 10]: 0.1 µg/mL (≈ 0.249 µM); MIC (Staphylococcus aureus [2]; [7]): 0.78 µg/mL (≈ 1.94 µM)
CN[C@H](CC(C)C)C(=O)N[C@H]1C(=O)N[C@@H](CC(N)=O)C(=O)N[C@H]2C(=O)N[C@H]3C(=O)N[C@H](C(=O)N[C@H](C(=O)O)c4cc(O)cc(O)c4-c4cc3ccc4O)[C@H](O)c3ccc(c(Cl)c3)Oc3cc2cc(c3O[C@@H]2O[C@H](CO)[C@@H](O)[C@H](O)[C@H]2O[C@H]2C[C@](C)(N)[C@H](O)[C@H](C)O2)Oc2ccc(cc2Cl)[C@H]1O [VANCOMYCIN] |  |  |  |  |  |  |  | > 6.25 | 0.2 (≈ 0.138 µM) |  | 0.2 (≈ 0.138 µM) | > 6.25 | 0.39 (≈ 0.269 µM) | 0.39 (≈ 0.269 µM) | 0.39 (≈ 0.269 µM) | MIC (Staphylococcus aureus [2]; [7]): 0.39 µg/mL (≈ 0.269 µM)
